Test results published in US20040146474A1, “Method for softening lines and relaxing the skin with adenosine and adenosine analogues” (L'OREAL, priority 2002, published 2004).

Test system: equivalent dermis model constituted by a matrix of collagen seeded with normal human fibroblasts
Assay: Dermo-relaxant effect: spontaneous contraction of equivalent dermis (collagen matrix seeded with fibroblasts)
Type: cell-based
Details: adenosine 0.01%
Source text: The principle of this test is to study the relaxing effect of adenosine on an equivalent dermis model constituted by a matrix of collagen seeded with normal human fibroblasts.
These conditions were intended to imitate in vitro the dermal contractile phenomena which occur during facial expressions. Under these conditions, cells spontaneously express tensile forces which induce retraction of the collagen gel. […] Measuring that surface area allows the relaxation effects of substances that have been brought into contact with the equivalent dermis to be determined.
Two series of 3 attached equivalent dermises containing normal human fibroblasts were prepared: a control series with no treatment, and a series treated with adenosine (0.01%). The experiment was carried out three times.
The skin equivalents were prepared as described by Asselineau et al, Exp. Cell. Res., 1985, 159, 536-539; Models in Dermatology, 1987, vol 3, pp 1-7, in the following proportions:
The treated equivalent dermis differed from the control equivalent dermis in that 0.01% of adenosine had been added.
The collagen used was type I collagen (commercial solution), but it was also possible to use type III or IV collagen. It was extracted from rat tails or calf skin by acid hydrolysis and stored in an acidic medium at +4° C.; it polymerizes naturally by heating to 37° C. and by reducing the acidity. The collagen had been dialyzed against successive baths of water+acetic acid.
The following protocol was employed: the following were introduced into a sterile tube: 1.76×MEM medium in the presence of additives (glutamine 1%, non essential amino acids 1%, sodium pyruvate 1%, fungizone 1% and penicillin/streptomycin 1%), foetal calf serum, 0.1 N sodium hydroxide NaOH. Fibroblasts isolated from human skin explants were then added in a concentration of 1.4×10^5 cells per ml of culture medium.
A 1/1000 vol/vol mixture of collagen in acetic acid was then slowly added by pouring it down the tube wall so that the appearance of a whitish cloud was observed.
The ensemble was then carefully mixed and distributed into the wells of a 12-well culture plate (Costar, reference 3512) in an amount of 0.5 ml of mixture per cm^2. The culture plate was placed in an incubator at 37° C. with 5% CO2.
Once formed after polymerizing the collagen, the equivalent dermises were left adhering to the culture support for 3 days then detached from the support so that contraction could commence. […]
To this end, a digital image was acquired for each treated or untreated equivalent dermis using a camera (CCD Camera—Iris Sony DXC—107P) and the surface area was then calculated for each image using an image analysis system (Zeiss Axiovision 3.0). […]

With Nc1ncnc2c1ncn2[C@@H]1O[C@H](CO)[C@@H](O)[C@H]1O [Adenosine] the “relaxing effect on equivalent dermis” value (conclusion in words) was “causes less contraction in an equivalent dermis”, the “reduction of contraction percentage compared with the control” value (“reduction of contraction percentage” below) (eight hours after detachment from support) was 10.5% and the “reduction of contraction percentage” value (four hours after detachment from support) was 6.4%. The “reduction of contraction percentage” value (twenty-four hours after detachment from support) was 12.7%.
